Laboratory results taken from patent US9113629B2, “4-amino-6-(4-substituted-phenyl)-picolinates and 6-amino-2-(4-substituted-phenyl)-pyrimidine-4-carboxylates and their use as herbicides” (DOW AGROSCIENCES LLC, priority 2013, dated 2015).

How the values were obtained:
[1] = tested on: HORSS: barley, including spring and winter (Hordeum vulgare); assay: Post-emergent Test III, herbicidal activity in wheat and barley; format: in vivo; settings: for pest or weed control at 35 g/ha / pest or weed control at 70 g/ha / pest or weed control at 140 g/ha: Hordeum vulgare, post-emergence, 504 h, read-out: Visual Growth Reduction (%) 21 Days After Application HORSS; for pest or weed control at 35 g/ha: 35 g ai/ha; for pest or weed control at 70 g/ha: 70 g ai/ha; for pest or weed control at 140 g/ha: 140 g ai/ha; for GR20 HORSS: probit analysis, dose for growth reduction of 20 percent, 21 days after application, crop
How it was run: (§1)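 GR20, GR50, GR80 and GR90 come from probit analysis of visual injury scores (0 = none, 100 = complete kill) taken 21 d after treatment. Foliar application was by track sprayer delivering 187 L/ha at five rates, from high down to 1/16×, onto greenhouse plants at the 2–3 leaf stage, with solvent-blank controls.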

[2] = tested on: MATSS: scented mayweed (Matricaria chamomilla), pineappleweed (Matricaria matricarioides); assay: as above; format: in vivo; settings: for pest or weed control at 35 g/ha / pest or weed control at 70 g/ha / pest or weed control at 140 g/ha: Matricaria chamomilla, post-emergence, 504 h, read-out: Visual Growth Reduction (%) 21 Days After Application MATSS; for pest or weed control at 35 g/ha: 35 g ai/ha; for pest or weed control at 70 g/ha: 70 g ai/ha; for pest or weed control at 140 g/ha: 140 g ai/ha; for GR50 MATSS / GR80 MATSS: probit analysis, 21 days after application; for GR50 MATSS: dose for growth reduction of 50 percent; for GR80 MATSS: dose for growth reduction of 80 percent
How it was run: as §1

[3] = tested on: KCHSC: kochia (Kochia scoparia); assay: as above; format: in vivo; settings: for pest or weed control at 35 g/ha / pest or weed control at 70 g/ha / pest or weed control at 140 g/ha: Bassia scoparia, post-emergence, 504 h, read-out: Visual Growth Reduction (%) 21 Days After Application KCHSC; for pest or weed control at 35 g/ha: 35 g ai/ha; for pest or weed control at 70 g/ha: 70 g ai/ha; for pest or weed control at 140 g/ha: 140 g ai/ha; for GR50 KCHSC / GR80 KCHSC: probit analysis, 21 days after application; for GR50 KCHSC: dose for growth reduction of 50 percent; for GR80 KCHSC: dose for growth reduction of 80 percent
How it was run: as §1

[4] = tested on: TRZSS: wheat, including spring and winter (Triticum aestivum); assay: as above; format: in vivo; settings: for pest or weed control at 35 g/ha / pest or weed control at 70 g/ha / pest or weed control at 140 g/ha: Triticum aestivum, post-emergence, 504 h, read-out: Visual Growth Reduction (%) 21 Days After Application TRZSS; for pest or weed control at 35 g/ha: 35 g ai/ha; for pest or weed control at 70 g/ha: 70 g ai/ha; for pest or weed control at 140 g/ha: 140 g ai/ha; for GR20 TRZSS: probit analysis, dose for growth reduction of 20 percent, 21 days after application, crop
How it was run: as §1

[5] = tested on: APESV: bentgrass (Apera spica-venti); assay: as above; format: in vivo; settings: for pest or weed control at 35 g/ha / pest or weed control at 70 g/ha / pest or weed control at 140 g/ha: Apera spica-venti, post-emergence, 504 h, read-out: Visual Growth Reduction (%) 21 Days After Application APESV; for pest or weed control at 35 g/ha: 35 g ai/ha; for pest or weed control at 70 g/ha: 70 g ai/ha; for pest or weed control at 140 g/ha: 140 g ai/ha; for GR50 APESV / GR80 APESV: probit analysis, 21 days after application; for GR50 APESV: dose for growth reduction of 50 percent; for GR80 APESV: dose for growth reduction of 80 percent
How it was run: as §1

[6] = tested on: LOLSS: ryegrass including, Italian ryegrass (Lolium multiflorum), rigid ryegrass (Lolium rigidum), annual ryegrass (Lolium multiflorum subsp. Gaudini); assay: as above; format: in vivo; settings: probit analysis, 21 days after application; for GR50 LOLSS: dose for growth reduction of 50 percent; for GR80 LOLSS: dose for growth reduction of 80 percent
How it was run: as §1

[7] = tested on: SETVI: green foxtail (Setaria viridis); assay: as above; format: in vivo; settings: for pest or weed control at 35 g/ha / pest or weed control at 70 g/ha / pest or weed control at 140 g/ha: Setaria viridis, post-emergence, 504 h, read-out: Visual Growth Reduction (%) 21 Days After Application SETVI; for pest or weed control at 35 g/ha: 35 g ai/ha; for pest or weed control at 70 g/ha: 70 g ai/ha; for pest or weed control at 140 g/ha: 140 g ai/ha; for GR50 SETVI / GR80 SETVI: probit analysis, 21 days after application; for GR50 SETVI: dose for growth reduction of 50 percent; for GR80 SETVI: dose for growth reduction of 80 percent
How it was run: as §1

[8] = as above; format: in vivo, Lolium multiflorum, Lolium rigidum; settings: Lolium multiflorum, post-emergence, 504 h, read-out: Visual Growth Reduction (%) 21 Days After Application LOLSS; for pest or weed control at 35 g/ha: 35 g ai/ha; for pest or weed control at 70 g/ha: 70 g ai/ha; for pest or weed control at 140 g/ha: 140 g ai/ha
How it was run: as §1

SMILES | pest or weed control at 35 g/ha [1] [%] | pest or weed control at 70 g/ha [1] [%] | pest or weed control at 140 g/ha [1] [%] | GR20 HORSS [1] [g ai/ha] | pest or weed control at 35 g/ha [2] [%] | pest or weed control at 70 g/ha [2] [%] | pest or weed control at 140 g/ha [2] [%] | GR50 MATSS [2] [g ai/ha] | GR80 MATSS [2] [g ai/ha] | pest or weed control at 35 g/ha [3] [%] | pest or weed control at 70 g/ha [3] [%] | pest or weed control at 140 g/ha [3] [%] | GR50 KCHSC [3] [g ai/ha] | GR80 KCHSC [3] [g ai/ha] | pest or weed control at 35 g/ha [4] [%] | pest or weed control at 70 g/ha [4] [%] | pest or weed control at 140 g/ha [4] [%] | GR20 TRZSS [4] [g ai/ha] | pest or weed control at 35 g/ha [5] [%] | pest or weed control at 70 g/ha [5] [%] | also measured
Nc1c(F)c(-c2ccc(Br)cc2)nc(C(=O)O)c1Cl [Compound 20] | 85 to 94 | 95 to 100 | 95 to 100 | 1 | 95 to 100 | 95 to 100 | 95 to 100 | 1 | 1 | 95 to 100 | 95 to 100 | 95 to 100 | 2 | 5 | 85 to 94 | 85 to 94 | 85 to 94 | 1 | 85 to 94 | 85 to 94 | pest or weed control at 140 g/ha [5]: 85 to 94%; GR50 APESV [5]: 2 g ai/ha; GR80 APESV [5]: 12 g ai/ha; GR50 LOLSS [6]: 25 g ai/ha; GR80 LOLSS [6]: >140 g ai/ha; pest or weed control at 35 g/ha [7]: 95 to 100%; pest or weed control at 70 g/ha [7]: 95 to 100%; pest or weed control at 140 g/ha [7]: 95 to 100%; GR50 SETVI [7]: 4 g ai/ha; GR80 SETVI [7]: 10 g ai/ha; pest or weed control at 35 g/ha [8]: 45 to 59%; pest or weed control at 70 g/ha [8]: 60 to 74%; pest or weed control at 140 g/ha [8]: 60 to 74%
N#Cc1ccc(-c2nc(C(=O)O)c(Cl)c(N)c2F)cc1 [Compound 39] | 30 to 44 | 45 to 59 | 60 to 74 | 18 | 95 to 100 | 95 to 100 | 95 to 100 | 1 | 1 | 75 to 84 | 85 to 94 | 85 to 94 | 3 | 40 | 75 to 84 | 75 to 84 | 85 to 94 | 1 | 30 to 44 | 45 to 59 | pest or weed control at 140 g/ha [5]: 60 to 74%; GR50 APESV [5]: 70 g ai/ha; GR80 APESV [5]: >140 g ai/ha; GR50 LOLSS [6]: 82 g ai/ha; GR80 LOLSS [6]: >140 g ai/ha; pest or weed control at 35 g/ha [7]: 30 to 44%; pest or weed control at 70 g/ha [7]: 45 to 59%; pest or weed control at 140 g/ha [7]: 60 to 74%; GR50 SETVI [7]: 68 g ai/ha; GR80 SETVI [7]: >140 g ai/ha; pest or weed control at 35 g/ha [8]: 30 to 44%; pest or weed control at 70 g/ha [8]: 45 to 59%; pest or weed control at 140 g/ha [8]: 60 to 74%
Nc1c(F)c(-c2ccc(I)cc2)nc(C(=O)O)c1Cl [Compound 45, 4-amino-3-chloro-5-fluoro-6-(4-iodophenyl)picolinic acid] | 85 to 94 | 85 to 94 | 95 to 100 | 1 | 85 to 94 | 95 to 100 | 95 to 100 | 2 | 29 | 85 to 94 | 95 to 100 | 95 to 100 | 2 | 9 | 85 to 94 | 85 to 94 | 85 to 94 | 1 | 85 to 94 | 85 to 94 | pest or weed control at 140 g/ha [5]: 95 to 100%; GR50 APESV [5]: 8 g ai/ha; GR80 APESV [5]: 25 g ai/ha; GR50 LOLSS [6]: 20 g ai/ha; GR80 LOLSS [6]: 69 g ai/ha; pest or weed control at 35 g/ha [7]: 60 to 74%; pest or weed control at 70 g/ha [7]: 85 to 94%; pest or weed control at 140 g/ha [7]: 95 to 100%; GR50 SETVI [7]: 18 g ai/ha; GR80 SETVI [7]: 52 g ai/ha; pest or weed control at 35 g/ha [8]: 60 to 74%; pest or weed control at 70 g/ha [8]: 75 to 84%; pest or weed control at 140 g/ha [8]: 85 to 94%
COC(=O)c1nc(-c2ccc(Br)c(F)c2F)cc(N)c1Cl [Compound 114, methyl 4-amino-6-(4-bromo-2,3-difluorophenyl)-3-chloropicolinate] | 0 to 29 | 30 to 44 | 30 to 44 | 42 | 0 to 29 | 0 to 29 | 0 to 29 | >140 | >140 | 60 to 74 | 60 to 74 | 75 to 84 | 3 | >140 | 30 to 44 | 45 to 59 | 45 to 59 | 16 | 0 to 29 | 0 to 29 | pest or weed control at 140 g/ha [5]: 0 to 29%; GR50 APESV [5]: >140 g ai/ha; GR80 APESV [5]: >140 g ai/ha; GR50 LOLSS [6]: >140 g ai/ha; GR80 LOLSS [6]: >140 g ai/ha; pest or weed control at 35 g/ha [7]: 0 to 29%; pest or weed control at 70 g/ha [7]: 0 to 29%; pest or weed control at 140 g/ha [7]: 0 to 29%; GR50 SETVI [7]: >140 g ai/ha; GR80 SETVI [7]: >140 g ai/ha; pest or weed control at 35 g/ha [8]: 0 to 29%; pest or weed control at 70 g/ha [8]: 0 to 29%; pest or weed control at 140 g/ha [8]: 0 to 29%
COC(=O)c1nc(-c2ccc(I)cc2)c(F)c(N)c1Cl [Compound 118, Methyl 4-amino-6-(4-iodophenyl)-3-chloro-5-fluoropicolinate] | 85 to 94 | 85 to 94 | 85 to 94 | 1 | 60 to 74 | 75 to 84 | 85 to 94 | 14 | 60 | 85 to 94 | 85 to 94 | 95 to 100 | 3 | 17 | 75 to 84 | 85 to 94 | 85 to 94 | 0 | 60 to 74 | 75 to 84 | pest or weed control at 140 g/ha [5]: 85 to 94%; GR50 APESV [5]: 22 g ai/ha; GR80 APESV [5]: 60 g ai/ha; GR50 LOLSS [6]: 49 g ai/ha; GR80 LOLSS [6]: 121 g ai/ha; pest or weed control at 35 g/ha [7]: 0 to 29%; pest or weed control at 70 g/ha [7]: 30 to 44%; pest or weed control at 140 g/ha [7]: 60 to 74%; GR50 SETVI [7]: 91 g ai/ha; GR80 SETVI [7]: 184 g ai/ha; pest or weed control at 35 g/ha [8]: 30 to 44%; pest or weed control at 70 g/ha [8]: 60 to 74%; pest or weed control at 140 g/ha [8]: 75 to 84%
